Results from patent US20170209427A1, “USE OF LAQUINIMOD TO DELAY HUNTINGTON'S DISEASE PROGRESSION” (Teva Pharmaceutical Industries, Ltd., priority 2013, published 2017).

Assays:
CYP3A4 = target: T1, CYP3A4 (Homo sapiens, UniProt P08684); assay: Metabolism of laquinimod in the liver; type: in vivo; conditions: humans
T1 construct: from tissue; host or cells: human liver (in vivo)

[1] = test system: patients with relapsing remitting MS; conditions: after 1 year of treatment; cited from earlier work
clinical = assay: clinical; parameters: species or system humans; conditions: human, in vivo
patients with HD = assay: Phase II randomized, double-blind, placebo-controlled clinical trial of laquinimod in Huntington's disease; type: in vivo, human
Experimental: A phase II, multi-centered, multinational, randomized, parallel-group, double-blinded, placebo-controlled study is conducted to evaluate the safety and efficacy of laquinimod (0.5, 1.0 and 1.5 mg/day) versus placebo in patients with HD.
This study includes 4 treatment arms, with approximately 100 patients per treatment arm and approximately 400 patients in total. The study is conducted in approximately 30 centers in Canada, USA and Europe.
The study population is comprised of patients with adult onset HD, with a cytosine-adenosine-guanine (CAG) repeat length between 40 and 49, inclusive. The basic eligibility criteria selects a population with symptoms of HD, as assessed by a Unified HD Rating Scale—Total Motor Score (UHDRS-TMS)>5, but with a largely retained functional capacity, as assessed with a Unified HD Rating Scale—Total Functional Capacity (UHDRS-TFC) score≧8.
The dose levels of laquinimod are 0.5 mg/day, 1.0 mg/day and 1.5 mg/day. Every patient takes 3 capsules once daily at the same time of the day for the whole study period.
The Laqunimod Treatment Arms are as follows: • 1.5 mg LAQ/day: patients randomized to laquinimod 1.5 mg qd (i.e., once daily) treatment arm receive 3 capsules of 0.5 mg laquinimod daily. • 1.0 mg LAQ/day: patients randomized to laquinimod 1.0 mg qd treatment arm receive 2 capsules of 0.5 mg laquinimod and 1 capsule of matching placebo daily. • 0.5 mg LAQ/day: patients randomized to laquinimod 0.5 mg qd treatment arm receive 1 capsule of 0.5 mg laquinimod and 2 capsules of matching placebo daily.
The 0.5 mg laquinimod capsules were prepared using 0.534 mg of laquinimod sodium per capsule (which is equivalent to 0.5 mg of laquinimod acid). The capsules were prepared using a blend proportional to the 0.6 mg capsules described in PCT International Application No. PCT/US2007/013721 (WO 2007/146248). The capsules were prepared according to the method described in PCT international Application No. PCT/US2007/013721 (WO 2007/146248), which is hereby incorporated by reference into this application.
This is a multinational, multicenter, randomized, double-blind, parallel-group, placebo-controlled study to evaluate the safety and clinical effect of daily oral administration of laquinimod (0.5 mg, 1.0 mg, or 1.5 mg) in patients with HD.
Patients are treated with laquinimod for 12 months, and safety and efficacy are assessed after 1, 3, 6, 9 and 12 months of treatment. Eligible subjects are randomized in a 1:1:1:1 ratio into one of the following treatment arms: • 1. Laquinimod capsule 0.5 mg (Total of 0.5 mg) • 2. Laquinimod capsules 0.5 mg×2 (Total of 1.0 mg) • 3. Laquinimod capsules 0.5 mg×3 (Total of 1.5 mg) • 4. Matching placebo
The following assessments are performed at the specified time points: • 1. Eligibility criteria is reviewed and confirmed at screening and baseline. • 2. Vital signs are measured at each study visit. • 3. A physical examination is performed at each study visit. • 4. The following safety clinical laboratory tests are performed: • a) Complete blood count (CBC) with differential at each study visit. • b) Serum chemistry (including electrolytes, liver enzymes, urea, creatinine, glucose, total protein, albumin, direct and total bilirubin, Creatinephosphokinase (CPK), serum conventional C-reactive protein (CRP), fibrinogen and pancreatic amylase)—at all scheduled visits. […]

[2] = 0.5, 1.0 and 1.5 mg/day oral vs Placebo Arm, 12 months

T1 sequence (P08684 whole entry): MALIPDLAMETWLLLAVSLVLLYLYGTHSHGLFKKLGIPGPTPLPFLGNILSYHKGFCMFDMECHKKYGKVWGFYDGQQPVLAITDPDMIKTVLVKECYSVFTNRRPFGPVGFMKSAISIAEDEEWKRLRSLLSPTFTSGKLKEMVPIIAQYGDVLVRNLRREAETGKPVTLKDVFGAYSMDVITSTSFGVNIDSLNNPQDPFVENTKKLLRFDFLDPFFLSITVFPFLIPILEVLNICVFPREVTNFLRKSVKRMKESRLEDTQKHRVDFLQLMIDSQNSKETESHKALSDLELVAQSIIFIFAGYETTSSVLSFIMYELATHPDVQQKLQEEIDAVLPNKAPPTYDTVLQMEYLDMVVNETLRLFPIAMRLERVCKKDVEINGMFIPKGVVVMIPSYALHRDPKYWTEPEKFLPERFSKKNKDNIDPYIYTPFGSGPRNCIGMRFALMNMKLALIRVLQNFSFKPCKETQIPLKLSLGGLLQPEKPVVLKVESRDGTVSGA

- metabolism by CYP3A4 in the liver (CYP3A4): extensively metabolized
- Vd (clinical): ~10 L
- fraction unbound (clinical): < 0.02
- half-life (clinical): ~80 h
- bioavailability (clinical; po): ~90%
- oral clearance (clinical; po): ~0.09 L/h
Compound: CCN(C(=O)c1c(O)c2c(Cl)cccc2n(C)c1=O)c1ccccc1 [laquinimod]
- effect on brain atrophy and disability progression [1]: benefit
- Progression (rate of change) of CIBIC-Plus global score (patients with HD; [2]): slower
- Progression (rate of change) of HADS (patients with HD; [2]): slower
- Progression (rate of change) of PBA (short) (patients with HD; [2]): slower
- Progression (rate of change) of Physical Performance Test (PPT) score (patients with HD; [2]): slower
- Progression (rate of change) of Q-motor assessments score (patients with HD; [2]): slower
- Progression (rate of change) of UHDRS-FA score (patients with HD; [2]): slower
- Progression (rate of change) of UHDRS-TMS (patients with HD; [2]): slower
- Progression (rate of change) of cognitive assessment battery (CAB) (patients with HD; [2]): slower
- Progression (rate of change) of deterioration of functional capacity, UHDRS-TFC score (patients with HD; [2]): slower
- Progression (rate of change) of work productivity and quality of life (HD-QoL) (patients with HD; [2]): slower
- Progression (rate of change) of brain atrophy (whole brain, caudate, white matter, ventricular volume) (patients with HD; 0.5, 1.0 and 1.5 mg/day oral vs Placebo Arm, MRI, 12 months): slower
- treatment of symptomatic early HD patients (patients with HD; 0.5, 1.0 and 1.5 mg/day oral, UHDRS-TMS >5 and/or UHDRS-TFC ≧8 at baseline): effective
